Data reported in article PMC5844530, “Fosmetpantotenate (RE-024), a phosphopantothenate replacement therapy for pantothenate kinase-associated neurodegeneration: Mechanism of action and efficacy in nonclinical models” (PLoS ONE, 2018).
Where “and” joins values, the source holds several entries; their conditions need not be identical. Equal values may be shown once. Read-outs that look alike come from different tables or passages of the source.

What was measured:
[1] = tested on: porcine brain endothelial cell (PBEC) co-culture model; experiment: In vitro blood-brain barrier permeability (PBEC/rat astrocyte co-culture); details: in words
Description: Permeability studies were performed after 2 days of co-culture with rat astrocytes. […] In each filter used for transport, a paracellular marker was included as an internal control to monitor the integrity of the cell monolayer. The day of the experiment, culture medium was removed and cells on Transwell inserts were pre-incubated for 30 min with Hank's Balanced Salt Solution (HBSS) containing 20 mM Hepes pH 7.4 and 0.1% bovine serum albumin (BSA). […] Aliquots from the basal compartment were taken after 1 h; fluorescence was measured using a fluorescence detector. The permeability coefficient of the total system was calculated as follows: P[cm/s]=Vd×ΔMr/A×Md×Δt Where:
To correct for the contribution of the porous polycarbonate membrane of the filter in the absence of cells, the permeability was also determined for the cell-free system. Contribution of the endothelial cell monolayer to the permeability of the cell and filter system was determined by the following equation: 1/Pe=1/Pt-1/Pf Where the total permeability of the system is denoted as Pt, the cell-free filter as Pf, and the endothelial cell layer alone as Pe. The total resistance of the system towards passage of a substance is composed of 2 resistances in series: that of the cell monolayer and that of the filter; permeability is estimated as 1/resistance [27]. […] Mass balance was determined based on the amount of compound recovered in the donor and receiver chamber at the end of the assay relative to the amount added to the donor chamber at time 0.

[2] = Microdialysis (striatal dialysate and blood) in cynomolgus monkeys; type: in vivo, cynomolgus monkey; details: for Cmax: po, read-out: Cmax; for AUC: read-out: AUC
Description: Monkeys were sedated by intramuscular (i.m.) ketamine administration and cannulated for intravenous (i.v.) administration of propofol infusion (initiated 15–30 min after ketamine administration). Subsequently, the animals were placed in an magnetic resonance imaging (MRI)-compatible stereotaxic frame (Kopf Model 1430), and T1 and T2 weighted scans (for up to 1 h) were carried out with a 7 cm loop-coil in a 3 Tesla Siemens Magnetom TIM Trio (Germany). To derive the coordinates, Digital Imaging and Communications in Medicine (DICOM) files were transformed into Neuroimaging Informatics Technology Initiative (NIFTI) format. NIFTI-compatible images were loaded into 3D viewer software (MRIcro version 1.40 build 1), and the stereotaxic zero in the MRI image was determined using the coordinates of the earbar-tips. Coordinates for placement of the guide cannulas were calculated for every individual animal by use of MRI images and a primate brain map.
On a separate day, microdialysis guide cannulas were placed bilaterally in the head of the caudate nucleus using the same MRI compatible stereotaxic frame (Kopf Model 1430), under isoflurane anesthesia. Prior to surgery, animals were administered ketamine (i.m.), and subsequently anesthetized with isoflurane (0.8%-2% inhalation) while artificially ventilated with O2/N2O (40/60) at 60 to 80 mL tidal volume via an intratracheal tube. During surgery, subcutaneous or i.v. fluids were provided. Animals were allowed to recover from the anesthesia in a warmed environment, single housed, and given at a minimum a 14-day post-surgery recovery time. The following medications were administered to reduce pain and inflammation, as well as reduce the chance of post-operative infection: meloxicam (Metacam 5 mg/mL, 0.2 mg/kg, buprenorphine (Temgesic, 0.3 mg/mL, 0.0038 mg/kg), enrofloxacine (25 mg/mL, 5 mg/kg), and amoxicillin (150 mg/mL, 15 mg/kg).
Samples were stored in -80°C.
From monkeys only, whole blood samples (0.5 mL) were collected from the femoral vein at -1, 0, 1, 2, and 3 h relative to dosing and transferred immediately to chilled polypropylene 15 mL vials containing 2500 μL of 0.15% formic acid in acetonitrile, mixed, and placed on dry ice. After the collections samples were stored at -80°C.
Sample preparation for monkey dialysate and blood samples: Concentrations of fosmetpantotenate (D1 and D2), PA, and PPA in monkey dialysate and blood samples were determined by Brains On-Line LLC. […] For dialysate quantitation, standards and QC samples were prepared in control dialysate (0.2% BSA in aCSF: water: 0.04% ascorbic acid in aqueous 0.02 M formic acid [4.5:24:6 v/v/v]). Standards, QC samples, and dialysate (10 μL) were mixed with 6 μL 20 mM formic acid and 0.01% ascorbic acid in water containing internal standard (10 ng/mL of ^15N/^13C3-PA) and analyzed by LC-MS/MS. Blood standards and QC samples were prepared in supernatant from control monkey blood which had been treated with 5 volumes of 0.15% formic acid in acetonitrile. Endogenous levels >LLOQ were detected for PA in control quenched blood only and quantitated at 56.56 nM based on calibration standard prepared in solvent. To compensate for endogenous PA in the calibration curve control blood, PA standard curve concentrations were spiked plus endogenous levels. Sample work-up of blood involved diluting 10 μL supernatant from study blood samples, standards, and QC samples with 90 μL of 20 mM formic acid and 0.01% ascorbic acid in water, then treating with 4 μL 20 mM formic acid and 0.01% ascorbic acid in water containing internal standard (10 ng/mL of ^15N/^13C3-PA) and analyzing by LC-MS/MS.

[3] = Metabolic stability in mouse liver microsomes; type: in vitro ADME; details: pooled liver microsomes
Description: Metabolic stability in blood and liver microsomes: Fosmetpantotenate or its individual diastereomers (5 μM, n = 2, 37°C) were incubated in mouse, rat, cynomolgus monkey, and human whole blood. Samples (50 μL) were taken at 0, 5, 15, 30, and 60 min. Incubations of fosmetpantotenate or its individual diastereomers (1 μM, n = 2, 37°C) in pooled liver microsomes (0.25 mg protein/mL in 0.1 M phosphate buffer pH 7.4) were initiated with the addition of nicotinamide adenine dinucleotide phosphate (NADPH; 1 mM). Aliquots (100 μL) were obtained at 0, 5, 10, 20, and 40 min and added to 150 μL of 0.1% formic acid in acetonitrile-containing carbamazepine (0.5 μM) as an analytical internal standard, centrifuged, and the supernatants analyzed by LC-MS/MS.
Bioanalysis for determinations of analyte stability: Samples were analyzed using a benchtop tandem quadrupole detector (TQD) mass spectrometer (Waters Ltd, Centennial Park, Hertfordshire). […] Suitable retention and peak shape with separation of the 2 diastereomers were obtained. The chromatography column was a Phenomenex-Kinetex XB C18 (2.10 x 50 mm; 2.6 μm), with a 0.7 mL/min flow rate and a 2 μL injection volume. […]
The percent of compound remaining was determined from the MRM area response in each sample relative to that in the T = 0 samples (normalized for internal standard). […]

Q: What does the source list for COC(=O)CCNC(=O)[C@H](O)C(C)(C)COP(=O)(N[C@@H](C)C(=O)OC)Oc1ccccc1 (mixture of isomers) [Fosmetpantotenate]?
A: blood-brain barrier permeability classification [1]: permeable; fold increase in dialysate AUC from 100 to 300 mg/kg ([2]; PA basal adjusted, analyte = label): 5.0 fold; fold increase in blood estimated exposure from 100 to 300 mg/kg ([2]; blood): ~ 3.6 fold; concentration at 0.5 h ([2]; cynomolgus monkey, in vivo, 300 mg/kg, individual Cyno, Fosmetpantotentate 300 mg/kg PO, corrected for dilution, post-dose, time 0.5 hr, read-out: Fosmetpantotenate Dialysate Concentration): 2060 nM; concentration at 1 h ([2]; cynomolgus monkey, in vivo, 300 mg/kg, individual Cyno, Fosmetpantotentate 300 mg/kg PO, corrected for dilution, post-dose, time 1 hr, read-out: Fosmetpantotenate Dialysate Concentration): 393 nM; concentration at 1.5 h ([2]; cynomolgus monkey, in vivo, 300 mg/kg, individual Cyno, Fosmetpantotentate 300 mg/kg PO, corrected for dilution, post-dose, time 1.5 hr, read-out: Fosmetpantotenate Dialysate Concentration): 76 nM; concentration at 2 h ([2]; cynomolgus monkey, in vivo, 300 mg/kg, individual Cyno, Fosmetpantotentate 300 mg/kg PO, corrected for dilution, post-dose, time 2 hr, read-out: Fosmetpantotenate Dialysate Concentration): 20 nM; concentration at 2.5 h ([2]; cynomolgus monkey, in vivo, 300 mg/kg, individual Cyno, Fosmetpantotentate 300 mg/kg PO, corrected for dilution, post-dose, time 2.5 hr, read-out: Fosmetpantotenate Dialysate Concentration): 7.12 nM; concentration at 1 h ([2]; cynomolgus monkey, in vivo, 300 mg/kg, individual Cyno, Fosmetpantotentate 300 mg/kg PO, post-dose, time 1 hr, read-out: Fosmetpantotenate Blood Concentration): 7390 nM; concentration at 3 h ([2]; cynomolgus monkey, in vivo, 300 mg/kg, individual Cyno, Fosmetpantotentate 300 mg/kg PO, post-dose, time 3 hr, read-out: Fosmetpantotenate Blood Concentration): 227 nM; Cmax ([2]; cynomolgus monkey, in vivo, 100 mg/kg, blood, fosmetpantotenate 100 mg/kg PO, analyte = label): 1650 ± 1930 nM; Cmax ([2]; cynomolgus monkey, in vivo, 100 mg/kg, dialysate, fosmetpantotenate 100 mg/kg PO): 221 ± 253 nM; Cmax ([2]; cynomolgus monkey, in vivo, 300 mg/kg, dialysate, fosmetpantotenate 300 mg/kg PO, mean (individual values)): 1560 nM; AUC ([2]; cynomolgus monkey, in vivo, dialysate, fosmetpantotenate 100 mg/kg PO): 0.209 ± 0.234 µM·h; AUC ([2]; cynomolgus monkey, in vivo, dialysate, fosmetpantotenate 300 mg/kg PO, mean (individual values)): 1.03 µM·h; concentration at 3 h ([2]; cynomolgus monkey, in vivo, individual Cyno, Fosmetpantotentate 300 mg/kg PO, corrected for dilution, post-dose, time 3 hr, LLOQ D1=0.2 nM, D2=0.3 nM, read-out: Fosmetpantotenate Dialysate Concentration): 23.7 nM; Cmax ([2]; cynomolgus, cynomolgus monkey, in vivo, 300 mg/kg, blood, fosmetpantotenate 300 mg/kg PO, mean (individual values), analyte = label): 6040 nM; AUC ([2]; cynomolgus, cynomolgus monkey, in vivo, blood, fosmetpantotenate 100 mg/kg PO, analyte = label): 1.87 ± 1.96 µM·h; AUC ([2]; cynomolgus, cynomolgus monkey, in vivo, blood, fosmetpantotenate 300 mg/kg PO, mean (individual values), analyte = label): 6.81 µM·h; concentration at 3 h ([2]; individual Cyno, Fosmetpantotentate 300 mg/kg PO, corrected for dilution, post-dose, time 0.5 hr, read-out: Fosmetpantotenate Dialysate Concentration): 1059.88 nM; concentration at 3 h ([2]; individual Cyno, Fosmetpantotentate 300 mg/kg PO, corrected for dilution, post-dose, time 1 hr, read-out: Fosmetpantotenate Dialysate Concentration): 429.27 nM; concentration at 3 h ([2]; individual Cyno, Fosmetpantotentate 300 mg/kg PO, corrected for dilution, post-dose, time 1.5 hr, read-out: Fosmetpantotenate Dialysate Concentration): 72.40 nM; concentration at 3 h ([2]; individual Cyno, Fosmetpantotentate 300 mg/kg PO, corrected for dilution, post-dose, time 2 hr, read-out: Fosmetpantotenate Dialysate Concentration): 19.06 nM; concentration at 3 h ([2]; individual Cyno, Fosmetpantotentate 300 mg/kg PO, corrected for dilution, post-dose, time 2.5 hr, read-out: Fosmetpantotenate Dialysate Concentration): 4.54 nM; Fosmetpantotenate Dialysate Concentration ([2]; individual Cyno, Fosmetpantotentate 300 mg/kg PO, corrected for dilution, post-dose, time 3 hr, LLOQ D1=0.2 nM, D2=0.3 nM): BLQ; Fosmetpantotenate Dialysate Concentration ([2]; individual Cyno, Fosmetpantotentate 300 mg/kg PO, corrected for dilution, pre-dose, time 0 hr, LLOQ D1=0.2 nM, D2=0.3 nM): <LLOQ; Fosmetpantotenate Dialysate Concentration ([2]; individual Cyno, Fosmetpantotentate 300 mg/kg PO, corrected for dilution, pre-dose, time -0.5 hr, LLOQ D1=0.2 nM, D2=0.3 nM): <LLOQ; Fosmetpantotenate Dialysate Concentration ([2]; individual Cyno, Fosmetpantotentate 300 mg/kg PO, corrected for dilution, pre-dose, time -1 hr, LLOQ D1=0.2 nM, D2=0.3 nM): <LLOQ; concentration at 1 h ([2]; individual Cyno, Fosmetpantotentate 300 mg/kg PO, post-dose, time 1 hr, read-out: Fosmetpantotenate Blood Concentration): 4687.62 nM; concentration at 1 h ([2]; individual Cyno, Fosmetpantotentate 300 mg/kg PO, post-dose, time 2 hr, read-out: Fosmetpantotenate Blood Concentration): 1026.66 nM and 312.23 nM; concentration at 1 h ([2]; individual Cyno, Fosmetpantotentate 300 mg/kg PO, post-dose, time 3 hr, read-out: Fosmetpantotenate Blood Concentration): 183.68 nM; Fosmetpantotenate Blood Concentration ([2]; individual Cyno, Fosmetpantotentate 300 mg/kg PO, pre-dose, time 0 hr relative to dose): <LLOQ; Fosmetpantotenate Blood Concentration ([2]; individual Cyno, Fosmetpantotentate 300 mg/kg PO, pre-dose, time -1 hr relative to dose): <LLOQ; half-life at 1 μM ([3]; pH 7.4, 1 μM, NADPH): 11 min; microsomal CLint at 1 μM ([3]; pH 7.4, read-out: intrinsic clearance): 247 µL/min/mg
